# Measurements published in patent US12527837B2, “Peptide for use in the prevention and/or treatment of a disease caused by a virus affecting the respiratory tract” (priority 2020, dated 2026).
# Where two headings read alike, the source gives them in different places. No end group written: not given here.
# Experiments:
# [1] = test system: standardised antigens from H1N1 virus; assay: Haemagglutination Inhibition Assay (HAI) with standardised antigens of influenza virus subtype H1N1; assay type: cell-based; conditions: for activity of lysine-acetylated derivatives against the influenza virus compared with the parent peptides of example 2.1: HAI with standardised antigens
# [2] = test system: live virus from subtype H3N2 of influenza virus; assay: HAI with live influenza virus subtype H3N2; assay type: cell-based; conditions: live virus 4 HAU/25 μl; 1.5% v/v turkey red blood cells; FIG. 4B
# [3] = test system: live virus from subtype H1N1 of influenza virus; assay: HAI with live influenza virus subtype H1N1; assay type: cell-based; conditions: live virus 4 HAU/25 μl; 1.5% v/v turkey red blood cells; FIG. 4A
# [4] = test system: human coronavirus SARS-CoV-2; assay: HAI with heat-inactivated viral lysate of SARS-CoV-2; assay type: cell-based; conditions: heat-inactivated viral lysate 4 UHA/25 μl; 1.5% v/v turkey RBC; FIG. 5
# measles virus = assay: HAI with heat-inactivated viral lysate of measles virus; assay type: cell-based; conditions: heat-inactivated viral lysate 4 UHA/25 μl; 1.5% v/v turkey RBC; FIG. 5
# [5] = test system: human coronavirus HcoV-OC43; assay: HAI with heat-inactivated viral lysate of HcoV-OC43; assay type: cell-based; conditions: heat-inactivated viral lysate 4 UHA/25 μl; 1.5% v/v turkey RBC; FIG. 5
# [6] = MDCK cells, 20 hours, MTS, FIG. 10
# [7] = MDCK cells, 20 hours, MTS, highest concentration tested 1 mg/ml
substance,measurement,setting,value
LEK*GLDGAKK AVGGLGKLGKDAVEDLESVGKGAVHDVKDVL (LEK(Ac)GLDGAKKAVGGLGKLGKDAVEDLESVGKGAVHDVKDVL) [SEQ ID No.: 29],activity of lysine-acetylated derivatives against the influenza virus compared with the parent peptides of example 2.1,[1],the same activity
LEK*GLDGAKK AVGGLGKLGKDAVEDLESVGKGAVHDVKDVLD (LEK(Ac)GLDGAKKAVGGLGKLGKDAVEDLESVGKGAVHDVKDVLD) [SEQ ID No.: 19],activity of lysine-acetylated derivatives against the influenza virus compared with the parent peptides of example 2.1,[1],the same activity
LEK*GLDGAKK AVGGLGKLGKDAVEDLESVGKGAVHDVKDVLDSVL (LEK(Ac)GLDGAKKAVGGLGKLGKDAVEDLESVGKGAVHDVKDVLDSVL) [SEQ ID No.: 20],activity of lysine-acetylated derivatives against the influenza virus compared with the parent peptides of example 2.1,[1],the same activity
same,activity against the H3N2 subtype of live influenza virus (HAI),[2],had activity
same,activity against the H1N1 subtype of live influenza virus (HAI),[3],had activity
"LEKGLDGAKKAVGGLGKLGKDAVEDLESVGKGAVHDVKDVLD (LEKGLDGAKKAVGGLGKLGKDAVEDLESVGKGAVHDVKDVLD; LEK-42) [SEQ ID No.: 1, dermcidin fragment]",activity against standardised antigens of H1N1 subtype of influenza virus (inhibiting haemagglutination),"[1]; H1N1 antigens 8 HAU/50 μl, 5% v/v turkey red blood cells, FIG. 2 and FIG. 3",had activity
"LEKGLDGAKKAVGGLGKLGKDAVEDLESVGKGAVHDVKDVLDSVL [SEQ ID No.: 2, LEKGLDGAKKAVGGLGKLGKDAVEDLESVGKGAVHDVKDVLDSVL]",peptides that cause significant toxicity in cells,MDCK cells; [6],none
same,cells in the culture that exhibited toxicity,MDCK cells; [7],20%
"RRKKAAVALLPAVLLALLAP [EB, RRKKAAVALL PAVLLALLAP, reference compound]",cytotoxicity observed in the culture,MDCK cells,total cell destruction
same,cytotoxicity of the cells in the culture,MDCK cells,50%
SSLLEK*GLDG AKKAVGGLGK LGKDA (SSLLEK(Ac)GLDGAKKAVGGLGKLGKDA) [SEQ ID No.: 28],activity of lysine-acetylated derivatives against the influenza virus compared with the parent peptides of example 2.1,[1],the same activity
SSLLEK*GLDG AKKAVGGLGKLGKDAVEDLESVGKGAVHDVKDVLD (SSLLEK(Ac)GLDGAKKAVGGLGKLGKDAVEDLESVGKGAVHDVKDVLD) [SEQ ID No.: 21],activity of lysine-acetylated derivatives against the influenza virus compared with the parent peptides of example 2.1,[1],the same activity
same,activity against the H3N2 subtype of live influenza virus (HAI),[2],had activity
SSLLEK*GLDG AKKAVGGLGKLGKDAVEDLESVGKGAVHDVKDVLDSV (SSLLEK(Ac)GLDGAKKAVGGLGKLGKDAVEDLESVGKGAVHDVKDVLDSV) [SEQ ID No.: 22],activity against SARS-CoV-2 (preventing adhesion of the virus to RBCs),[4],active
same,activity against the H3N2 subtype of live influenza virus (HAI),[2],had activity
same,activity against the H1N1 subtype of live influenza virus (HAI),[3],had activity
same,activity against measles virus (preventing adhesion of the virus to RBCs),measles virus,active
same,activity against HcoV-OC43 (preventing adhesion of the virus to RBCs),[5],active
SSLLEK*GLDG AKKAVGGLGKLGKDAVEDLESVGKGAVHDVKDVLDSVL (SSLLEK(Ac)GLDGAKKAVGGLGKLGKDAVEDLESVGKGAVHDVKDVLDSVL) [SEQ ID No.: 23],activity of lysine-acetylated derivatives against the influenza virus compared with the parent peptides of example 2.1,[1],the same activity
same,activity against SARS-CoV-2 (preventing adhesion of the virus to RBCs),[4],active
same,activity against the H3N2 subtype of live influenza virus (HAI),[2],had activity
same,activity against the H1N1 subtype of live influenza virus (HAI),[3],had activity
same,activity against measles virus (preventing adhesion of the virus to RBCs),measles virus,active
same,activity against HcoV-OC43 (preventing adhesion of the virus to RBCs),[5],active
"SSLLEKGLDGAKKAVGGLGKLGKDAVEDLESVGKGAVHDVKDVLD [SEQ ID No.: 3, SSLLEKGLDGAKKAVGGLGKLGKDAVEDLESVGKGAVHDVKDVLD]",peptides that cause significant toxicity in cells,MDCK cells; [6],none
same,cells in the culture that exhibited toxicity,MDCK cells; [7],20%
"SSLLEKGLDGAKKAVGGLGKLGKDAVEDLESVGKGAVHDVKDVLDSVL [SEQ ID No.: 5, SSLLEKGLDGAKKAVGGLGKLGKDAVEDLESVGKGAVHDVKDVLDSVL]",cells in the culture that exhibited toxicity,MDCK cells,20%
same,peptides that cause significant toxicity in cells,MDCK cells,none
